{"source": "ChEMBL document CHEMBL1821618", "about": "“Characteristic of alkylated chalcones from Angelica keiskei on influenza virus neuraminidase inhibition” (Bioorg Med Chem Lett, 2011)", "key": {"[1]": {"biological_target": "Neuraminidase (Influenza A virus (strain A/Brevig Mission/1/1918 H1N1) (Influenza Avirus (strain A/South Carolina/1/1918 H1N1)), UniProt Q9IGQ6)", "sequence (Q9IGQ6 whole entry)": "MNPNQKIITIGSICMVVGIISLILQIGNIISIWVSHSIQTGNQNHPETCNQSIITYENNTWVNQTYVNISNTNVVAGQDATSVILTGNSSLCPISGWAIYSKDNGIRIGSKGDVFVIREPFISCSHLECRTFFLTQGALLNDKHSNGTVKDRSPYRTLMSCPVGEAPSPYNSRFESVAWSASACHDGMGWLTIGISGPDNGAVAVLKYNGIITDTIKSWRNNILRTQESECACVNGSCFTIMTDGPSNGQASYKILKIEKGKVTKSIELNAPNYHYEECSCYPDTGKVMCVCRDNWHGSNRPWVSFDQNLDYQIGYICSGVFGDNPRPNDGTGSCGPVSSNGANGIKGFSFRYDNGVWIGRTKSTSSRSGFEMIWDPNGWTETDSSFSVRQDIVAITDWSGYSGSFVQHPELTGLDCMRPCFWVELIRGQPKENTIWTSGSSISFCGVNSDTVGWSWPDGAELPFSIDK", "test": "Noncompetitive inhibition of Influenza A virus (A/Brevig Mission/1/1918(H1N1)) recombinant neuraminidase using 4-methylumbelliferyl-alpha-D-N-acetylneuraminic acid sodium salt hydrate solution substrate by double reciprocal Lineweaver-Burk plot and dixon plot analysis"}, "[2]": {"biological_target": "Neuraminidase (Influenza A virus (strain A/Brevig Mission/1/1918 H1N1) (Influenza Avirus (strain A/South Carolina/1/1918 H1N1)), UniProt Q9IGQ6)", "test": "Inhibition of Influenza A virus (A/Brevig Mission/1/1918(H1N1)) recombinant neuraminidase using 4-methylumbelliferyl-alpha-D-N-acetylneuraminic acid sodium salt hydrate solution substrate by ELISA"}}, "data": [{"molecule": "COc1ccc(C(=O)/C=C/c2ccc(O)cc2)c(O)c1CC=C(C)C", "values": [{"measurement": "Ki", "setting": "[1]", "result": 50.2, "unit": "µM"}, {"measurement": "IC50", "setting": "[2]", "result": 42.1, "unit": "µM"}]}, {"molecule": "C=C(C)C(O)CC/C(C)=C/Cc1c(O)ccc(C(=O)/C=C/c2ccc(O)cc2)c1O", "note": "(configuration not stated) [XANTHOANGELOL B]", "values": [{"measurement": "Ki", "setting": "[1]", "result": 20.7, "unit": "µM"}, {"measurement": "IC50", "setting": "[2]", "result": 22.5, "unit": "µM"}]}, {"molecule": "C=C(C)C(O)Cc1c(OC)ccc(C(=O)/C=C/c2ccc(O)cc2)c1O", "note": "(configuration not stated) [XANTHOANGELOL D]", "values": [{"measurement": "Ki", "setting": "[1]", "result": 14, "unit": "µM"}, {"measurement": "IC50", "setting": "[2]", "result": 12.3, "unit": "µM"}]}, {"molecule": "COc1ccc(C(=O)/C=C/c2ccc(O)cc2)c(O)c1C/C=C(\\C)CCC=C(C)C", "note": "[XANTHOANGELOL F]", "values": [{"measurement": "Ki", "setting": "[1]", "result": 123, "unit": "µM"}, {"measurement": "IC50", "setting": "[2]", "result": 85.9, "unit": "µM"}]}, {"molecule": "C=C(C)C(O)CC/C(C)=C/Cc1c(OC)ccc(C(=O)/C=C/c2ccc(O)cc2)c1O", "note": "(configuration not stated) [XANTHOANGELOL G]", "values": [{"measurement": "Ki", "setting": "[1]", "result": 20, "unit": "µM"}, {"measurement": "IC50", "setting": "[2]", "result": 24.2, "unit": "µM"}]}, {"molecule": "COC(CC/C(C)=C/Cc1c(O)ccc(C(=O)/C=C/c2ccc(O)cc2)c1O)OC", "note": "[XANTHOKEISTAL A]", "values": [{"measurement": "Ki", "setting": "[1]", "result": 33.5, "unit": "µM"}, {"measurement": "IC50", "setting": "[2]", "result": 30.9, "unit": "µM"}]}]}
